Structures can show the parent of a compound that is named as a salt.

The target in the assay is T1, PDE4B (human recombinant) (Homo sapiens, UniProt Q07343).
T1 construct: made in house
T1 sequence (Q07343 1-564 isoform Q07343-2): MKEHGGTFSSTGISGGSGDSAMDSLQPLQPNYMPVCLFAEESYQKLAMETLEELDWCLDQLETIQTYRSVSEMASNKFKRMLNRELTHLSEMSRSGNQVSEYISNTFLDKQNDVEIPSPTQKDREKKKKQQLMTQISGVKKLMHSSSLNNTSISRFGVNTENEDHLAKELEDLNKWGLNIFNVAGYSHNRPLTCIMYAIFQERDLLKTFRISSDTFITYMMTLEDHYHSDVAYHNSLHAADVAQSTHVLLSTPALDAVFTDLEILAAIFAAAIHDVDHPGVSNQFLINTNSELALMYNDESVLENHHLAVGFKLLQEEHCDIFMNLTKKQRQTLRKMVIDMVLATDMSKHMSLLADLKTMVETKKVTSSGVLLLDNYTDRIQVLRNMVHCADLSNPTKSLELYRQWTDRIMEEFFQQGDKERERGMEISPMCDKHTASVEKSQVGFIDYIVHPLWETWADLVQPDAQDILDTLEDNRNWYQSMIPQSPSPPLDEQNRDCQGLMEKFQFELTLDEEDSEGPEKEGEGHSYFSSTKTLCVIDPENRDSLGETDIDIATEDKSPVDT
The assay is described as follows: PDE4B inhibition, fluorescence polarisation (FP) and/or SPA assay. It is filed as biochemical. The note with it: n=1 or average of 2 or more readings, accuracy ±about 0.5 log unit, read-out: PDE4B pIC50 (generally in FP assay) (±about 0.5) (converted). The source says: Human recombinant PDE4B, in particular the 2B splice variant thereof (HSPDE4B2B), is disclosed in WO 94/20079 and also M. M. McLaughlin et al., “A low Km, rolipram-sensitive, cAMP-specific phosphodiesterase from human brain: cloning and expression of cDNA, biochemical characterisation of recombinant protein, and tissue distribution of mRNA”, J. Biol. Chem., 1993, 268, 6470-6476. For example, in Example 1 of WO 94/20079, human recombinant PDE4B is described as being expressed in the PDE-deficient yeast Saccharomyces cerevisiae strain GL62, e.g. after induction by addition of 150 uM CuSO4, and 100,000×g supernatant fractions of yeast cell lysates are described for use in the harvesting of PDE4B enzyme.
The ability of compounds to inhibit catalytic activity at PDE4B or 4D (human recombinant), PDE3 (from bovine aorta), PDE5 (human recombinant) or PDE6 (from bovine retina) can optionally be determined by Scintillation Proximity Assay (SPA) in a 96-well format.
Test compounds (as a solution in DMSO, preferably about 2 microliter (ul) volume of DMSO solution) are preincubated at ambient temperature (room temperature, e.g. 19-23° C.) in Wallac Isoplates (code 1450-514) with PDE enzyme in 50 mM Tris-HCl buffer pH 7.5, 8.3 mM MgCl2, 1.7 mM EGTA, 0.05% (w/v) bovine serum albumin for 10-30 minutes (usually 30 minutes). The enzyme concentration is adjusted so that no more than 20% hydrolysis of the substrate defined below occurs in control wells without compound, during the incubation. For the PDE3, PDE4B and PDE4D assays, [5′,8-3H]Adenosine 3′,5′-cyclic phosphate (Amersham Pharmacia Biotech, code TRK.559; or Amersham Biosciences UK Ltd, Pollards Wood, Chalfont St Giles, Buckinghamshire HP8 4SP, UK) is added to give 0.05 uCi per well and about 10 nM final concentration. For the PDE5 and PDE6 assays, [8-^3H]Guanosine 3′,5′-cyclic phosphate (Amersham Pharmacia Biotech, code TRK.392) is added to give 0.05 uCi per well and about 36 nM final concentration. Plates containing assay mixture, preferably approx. 100 ul volume of assay mixture, are mixed on an orbital shaker for 5 minutes and incubated at ambient temperature for 1 hour. Phosphodiesterase SPA beads (Amersham Pharmacia Biotech, code RPNQ 0150) are added (about 1 mg per well) to terminate the assay. Plates are sealed and shaken and allowed to stand at ambient temperature for 35 minutes to 1 hour (preferably 35 minutes) to allow the beads to settle. Bound radioactive product is measured using a WALLAC TRILUX 1450 Microbeta scintillation counter. For inhibition curves, 10 concentrations (e.g. 1.5 nM-30 uM) of each compound are assayed. Curves are analysed using ActivityBase and XLfit (ID Business Solutions Limited, 2 Ocean Court, Surrey Research Park, Guildford, Surrey GU2 7QB, United Kingdom) Results are expressed as pIC50 values.
The ability of compounds to inhibit catalytic activity at PDE4B (human recombinant) or PDE4D (human recombinant) can optionally be determined by IMAP Fluorescence Polarisation (FP) assay (IMAP Explorer kit, available from Molecular Devices Corporation, Sunnydale, Calif., USA; Molecular Devices code: R8062) in 384-well format.
The IMAP FP assay is able to measure PDE activity in an homogenous, non-radioactive assay format. The FP assay uses the ability of immobilised trivalent metal cations, coated onto nanoparticles (tiny beads), to bind the phosphate group of FI-AMP that is produced on the hydrolysis of fluorescein-labelled (FI) cyclic adenosine mono-phosphate (FI-cAMP) to the non-cyclic FI-AMP form. […] Binding of FI-AMP product to the beads (coated with the immobilised trivalent cations) slows the rotation of the bound FI-AMP and leads to an increase in the fluorescence polarisation ratio of parallel to perpendicular light. Inhibition of the PDE reduces/inhibits this signal increase. […]
(In fluorescence polarisation assays a small probe gives low polarisation when free and higher when bound to something large.)
For `CCc1nc2c(cnn2CC)c(NC2CCOCC2)c1CNC(=O)Cc1cccc(CC(=O)NCc2c(CC)nc3c(cnn3CC)c2NC2CCOCC2)c1` [Example 8, 2,2′-benzene-1,3-diylbis(N-{[1,6-diethyl-4-(tetrahydro-2H-pyran-4-ylamino)-1H-pyrazolo[3,4-b]pyridin-5-yl]methyl}acetamide)], the IC50 was 0.126 to 1 nM.

Consider `CCc1nc2c(cnn2CC)c(NC2CCOCC2)c1CNC(=O)c1ccc(Cc2ccc(C(=O)NCc3c(CC)nc4c(cnn4CC)c3NC3CCOCC3)cc2)cc1` [Example 5, 4,4′-methanediylbis(N-{[1,6-diethyl-4-(tetrahydro-2H-pyran-4-ylamino)-1H-pyrazolo[3,4-b]pyridin-5-yl]methyl}benzamide)], for which the IC50 is 0.0158 to 0.1 nM.

Turning to `CCc1nc2c(cnn2CC)c(NC2CCN(C(N)=O)CC2)c1CNC(=O)COc1ccccc1C(=O)NCc1c(CC)nc2c(cnn2CC)c1NC1CCN(C(N)=O)CC1` [Example 16, 4-[(5-{[({[2-({[(4-{[1-(aminocarbonyl)-4-piperidinyl]amino}-1,6-diethyl-1H-pyrazolo[3,4-b]pyridin-5-yl)methyl]amino}carbonyl)phenyl]oxy}acetyl)amino]methyl}-1,6-diethyl-1H-pyrazolo[3,4-b]pyridin-4-yl)amino]-1-piperidinecarboxamide trifluoroacetate], the IC50 was 0.0158 to 0.1 nM. Then `CCc1nc2c(cnn2CC)c(NC2CCOCC2)c1CNC(=O)Cc1ccc(CC(=O)NCc2c(CC)nc3c(cnn3CC)c2NC2CCOCC2)cc1` [Example 6, 2,2′-benzene-1,4-diylbis(N-{[1,6-diethyl-4-(tetrahydro-2H-pyran-4-ylamino)-1H-pyrazolo[3,4-b]pyridin-5-yl]methyl}acetamide)], with 0.126 to 1 nM; and `CCc1nc2c(cnn2CC)c(NC2CCN(C(N)=O)CC2)c1CNC(=O)c1ccc(-c2ccc(C(=O)NCc3c(CC)nc4c(cnn4CC)c3NC3CCN(C(N)=O)CC3)cc2)cc1` [Example 26, N,N′-bis[(4-{[1-(aminocarbonyl)-4-piperidinyl]amino}-1,6-diethyl-1H-pyrazolo[3,4-b]pyridin-5-yl)methyl]-4,4′-biphenyldicarboxamide], with 0.0158 to 0.1 nM; and `CCc1nc2c(cnn2CC)c(NC2CCN(C(N)=O)CC2)c1CNC(=O)CCC(=O)NCc1c(CC)nc2c(cnn2CC)c1NC1CCN(C(N)=O)CC1` [Example 17, N,N′-bis[(4-{[1-(aminocarbonyl)-4-piperidinyl]amino}-1,6-diethyl-1H-pyrazolo[3,4-b]pyridin-5-yl)methyl]butanediamide trifluoroacetate], with 0.126 to 1 nM.

As to `CCc1nc2c(cnn2CC)c(NC2CCOCC2)c1CNC(=O)CCc1ccccc1C(=O)NCc1c(CC)nc2c(cnn2CC)c1NC1CCOCC1` [Example 7, N-{[1,6-diethyl-4-(tetrahydro-2H-pyran-4-ylamino)-1H-pyrazolo[3,4-b]pyridin-5-yl]methyl}-2-[3-({[1,6-diethyl-4-(tetrahydro-2H-pyran-4-ylamino)-1H-pyrazolo[3,4-b]pyridin-5-yl]methyl}amino)-3-oxopropyl]benzamide], the IC50 is 0.0158 to 0.1 nM. Then `CCc1nc2c(cnn2CC)c(NC2CCOCC2)c1CNC(=O)CC(C)(C)CC(=O)NCc1c(CC)nc2c(cnn2CC)c1NC1CCOCC1` [Example 3, N,N′-bis{[1,6-diethyl-4-(tetrahydro-2H-pyran-4-ylamino)-1H-pyrazolo[3,4-b]pyridin-5-yl]methyl}-3,3-dimethylpentanediamide], with 0.0158 to 0.1 nM.

Regarding `CCc1nc2c(cnn2CC)c(NC2CCOCC2)c1CNC(=O)CCc1ccc(C(=O)NCc2c(CC)nc3c(cnn3CC)c2NC2CCOCC2)cc1` [Example 1, N-{[1,6-diethyl-4-(tetrahydro-2H-pyran-4-ylamino)-1H-pyrazolo[3,4-b]pyridin-5-yl]methyl}-4-[3-({[1,6-diethyl-4-(tetrahydro-2H-pyran-4-ylamino)-1H-pyrazolo[3,4-b]pyridin-5-yl]methyl}amino)-3-oxopropyl]benzamide], the IC50 is 0.0158 to 0.1 nM.

The record behind these values is patent publication US20090326003A1, “PYRAZOLO (3, 4-B) PYRIDINE DERIVATIVES AS PDE4 INHIBITORS” (priority 2006, published 2009).
